Assay results published in patent US11116757B2 (priority 2015, dated 2021).

The molecules below were run against DCN1-UBC12 interaction (Homo sapiens (Human), UniProt Q96GG9) (assay: biochemical). Conditions: TR-FRET IC50.
Chain of DCN1-UBC12 interaction (Q96GG9 60-248 limits assumed): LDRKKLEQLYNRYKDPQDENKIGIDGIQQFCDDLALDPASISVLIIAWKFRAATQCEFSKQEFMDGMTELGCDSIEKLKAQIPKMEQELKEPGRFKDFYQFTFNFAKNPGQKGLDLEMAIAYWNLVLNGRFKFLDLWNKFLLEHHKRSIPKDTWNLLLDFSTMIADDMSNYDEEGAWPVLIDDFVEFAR
Type: binding
`CCCC(C)N1CCC(N(Cc2ccccc2)C(=O)Nc2ccc(Cl)cc2)CC1` (stereo not shown) [A13] gave an IC50 of 0.083 µM.

Same assay, conditions: Table 4, commercial compounds; read-out: TR-FRET IC50
With `Cc1cc(C)n(-c2ccc(NC(=O)C3CCN(C(=O)CC(F)(F)F)CC3)cc2)n1` [C34] the IC50 was over 67.6 µM. In the case of `O=C(Nc1cccc(C(F)(F)F)c1)C1CCN(C(=O)c2ccc(F)cc2)CC1` [C2], the IC50 is reported as 8.84 µM. `COc1ccc(C(=O)N2CCC(C(=O)Nc3cccc(F)c3)CC2)c2ccccc12` [C58] showed an IC50 of over 67.6 µM. `O=C(Nc1ccc(C(F)(F)F)cc1)C1CCN(C(=O)c2ccccc2F)CC1` [C65] was tested, and the IC50 was over 68.1 µM. `CCC1CN(C(=O)N2CCC(C(=O)Nc3cccc(OC)c3)CC2)c2ccccc2O1` (stereo not shown) [C54] was tested, and the IC50 was over 67.6 µM. `CSc1cccc(NC(=O)C2CCN(C(=O)c3ccc(F)cc3)CC2)c1` [C4] was tested, and the IC50 was 26.3 µM. `Cc1ccc(NC(=O)C2CCN(C(=O)c3ccc(Cl)cc3)CC2)cc1Cl` [C6] gave an IC50 of 38.1 µM. In the case of `COc1ccc(C(=O)N2CCC(C(=O)Nc3cc(OC)ccc3OC)CC2)cc1` [C11], the IC50 is reported as over 48.7 µM. `COc1ccc(C(=O)N2CCC(C(=O)Nc3ccccc3C)CC2)c2ccccc12` [C62] showed an IC50 of over 67.6 µM.

Same assay, conditions: Table 6, commercial compounds; read-out: TR-FRET IC50
Molecule `CCN1CCN(C(=O)c2cnn(-c3nccc(-c4cccs4)n3)c2C)CC1` [E23] has an IC50 of 57.9 µM. Work on `C=CCNC(=O)c1cnn(-c2ncc(C)c(-c3cccs3)n2)c1C` [E59] yielded an IC50 of over 67.6 µM. With `CCN(CC)C(=O)c1cnn(-c2ncc(C)c(-c3cccs3)n2)c1C1CC1` [E26] the IC50 was 65.2 µM. `CCN(CC)CCNC(=O)c1cnn(-c2nccc(-c3cccs3)n2)c1C1CC1` [E36] was tested, and the IC50 was over 67.6 µM. `COCCN1CCN(C(=O)c2cnn(-c3ncc(C)c(-c4cccs4)n3)c2C2CC2)CC1` [E30] showed an IC50 of over 67.6 µM. Molecule `CCN(CC)CCN(CC)C(=O)c1cnn(-c2ncc3c(n2)-c2ccccc2CC3)c1C1CC1` [E9] has an IC50 of 23.1 µM. `COCCN(C(=O)c1cnn(-c2nccc(-c3cccs3)n2)c1C)C(C)C` [E45] was tested, and the IC50 was over 67.6 µM. With `CCN(CC)CCN(C)C(=O)c1cnn(-c2nccc(-c3cccs3)n2)c1C(C)C` [E15] the IC50 was 32.1 µM. Work on `CCOc1ccccc1N1CCN(C(=O)c2cnn(-c3nccc(-c4ccco4)n3)c2C)CC1` [E10] yielded an IC50 of 25 µM. `COCCN(C)C(=O)c1cnn(-c2nccc(-c3cccs3)n2)c1C` [E52] showed an IC50 of over 67.6 µM. Molecule `COCCN1CCN(C(=O)c2cnn(-c3nccc(-c4cc(C)sc4C)n3)c2COC)CC1` [E8] has an IC50 of 22.8 µM.

Same assay, conditions: Table 7, commercial compounds; read-out: TR-FRET IC50
Work on `CCCOc1cc(C2c3c(C)nn(C)c3NC(=O)C2NC(=O)c2ccc(Cl)cc2)ccc1OC` (stereo not shown) [F9] yielded an IC50 of over 67.6 µM. In the case of `Cc1cccc(C(=O)NC2C(=O)Nc3c(c(C)nn3C)C2c2ccc(C(C)(C)C)cc2)c1` (stereo not shown) [F13], the IC50 is reported as over 67.6 µM. With `Cc1nn(C)c2c1C(c1cccc(Cl)c1)C(NC(=O)c1ccc(Cl)cc1)C(=O)N2` (stereo not shown) [F28] the IC50 was over 67.6 µM.

Same assay, conditions: read-out: TR-FRET IC50
Molecule `O=C(Nc1cc(F)cc(C(F)(F)F)c1)N(Cc1ccccc1)C1CCN(Cc2ccc[nH]2)CC1` [A215] has an IC50 of over 23.4 µM. For `CC1CC(NC(=O)Nc2cnn(C)c2)CCN1Cc1ccccc1` (stereo not shown) [B42], the IC50 was over 64.4 µM. `Cn1c(CN2CCC(N(Cc3ccccc3)C(=O)Nc3cc(F)cc(C(F)(F)F)c3)CC2)nc2ccccc21` [A203] showed an IC50 of over 20.2 µM. `O=C(Nc1cccc(C(F)(F)F)c1)N(Cc1ccccc1)C1CC2CCC(C1)N2Cc1ccccc1` (stereo not shown) [A105] was tested, and the IC50 was 1.87 µM. `O=C(Nc1ccccc1Cl)NC1CCN(Cc2ccccc2)CC1` [B55] gave an IC50 of over 67.6 µM. `CCCCN1CCC(N(Cc2ccccc2)C(=O)Nc2cc(C(F)(F)F)cc(C(F)(F)F)c2)CC1` [A274] was tested, and the IC50 was over 68.2 µM. For `CCCC(C)N1CCC(N(Cc2ccccc2)C(=O)Nc2cccc(OCc3ccccc3)c2)CC1` (stereo not shown) [A94], the IC50 was 1.29 µM. Molecule `O=C(Nc1cccc(Cl)c1)NC1CCN(Cc2ccccc2)CC1` [B110] has an IC50 of over 73.1 µM. `CC(C1CCCC1)N1CCC(N(Cc2ccccc2)C(=O)Nc2cc(F)cc(C(F)(F)F)c2)CC1` (stereo not shown) [A279] showed an IC50 of over 7.78 µM. Molecule `CCCC(C)N1CCC(N(Cc2ccccc2)C(=O)Nc2cc(C)cc(Cl)c2)CC1` (stereo not shown) [A99] has an IC50 of 1.41 µM. For `O=C(Nc1cc(F)cc(C(F)(F)F)c1)N(Cc1ccccc1)C1CCN(Cc2ccccc2OCc2ccccc2)CC1` [A214], the IC50 was over 22.9 µM. `CCCC(C)N1CCC(N(Cc2ccc3c(c2)OCO3)C(=O)Nc2ccc(F)c(C(F)(F)F)c2)CC1` (stereo not shown) [A61] gave an IC50 of 0.371 µM. `O=C(Nc1ccc(CN2CCCCC2)cc1)Nc1cc(C(F)(F)F)ccc1Cl` [B29] gave an IC50 of over 50.3 µM. In the case of `CCN1CCC(N(Cc2ccco2)C(=O)Nc2ccc(F)c(Cl)c2)CC1` [B104], the IC50 is reported as over 70.9 µM. `CC(C1CCCCC1)N1CCC(N(Cc2ccccc2)C(=O)Nc2cc(F)cc(C(F)(F)F)c2)CC1` (stereo not shown) [A125] showed an IC50 of 1.77 µM. `COc1ccc(C(=O)N2CCC(c3nc4ccccc4s3)CC2)cc1OC` [D19] was tested, and the IC50 was over 62.9 µM. `CCCC(C)N1CCC(N(Cc2ccccc2)C(=O)Nc2cccc(N(C)C)c2)CC1` (stereo not shown) [A112] showed an IC50 of 2.3 µM. For `CCCC(C)N1CCC(N(Cc2ccccc2)C(=O)Nc2ccc3ccccc3c2)CC1` (stereo not shown) [A10], the IC50 was 0.0789 µM. With `CCCC(C)N1CCC(N(Cc2ccccc2)C(=O)Nc2ccc(OC(F)(F)F)cc2)CC1` (stereo not shown) [A32] the IC50 was 0.191 µM. For `Cc1ccc(C(=O)N2CCC(c3nc4ccccc4s3)CC2)cc1` [D3], the IC50 was 14.7 µM. With `O=C(Nc1cccc(C(F)(F)F)c1)NC1CCN(Cc2ccc(F)cc2)CC1` [A172, 1-(1-(4-Fluorobenzyl)Piperidin-4-yl)-3-(3-(Trifluoromethyl)Phenyl)Urea] the IC50 was 12.9 µM. `Cn1cncc1CN1CCC(N(Cc2ccccc2)C(=O)Nc2cc(F)cc(C(F)(F)F)c2)CC1` [A221] was tested, and the IC50 was over 24.8 µM. `CCCC(C)N1CCC(N(Cc2ccccc2)C(=O)Nc2ccc(C(=O)OC)cc2)CC1` (stereo not shown) [A163] gave an IC50 of 8.42 µM. Molecule `O=C(Nc1cccc(C(F)(F)F)c1)N[C@H]1CCN(Cc2ccccc2)C[C@@H]1O` [A185] has an IC50 of 30 µM. Work on `Cc1ccc2[nH]c(C3CCN(Cc4cccc(C(F)(F)F)c4)CC3)nc2c1` [B19] yielded an IC50 of under 0.004 µM. For `CCCC(C)N1CCC(N(Cc2ccccc2CNC(=O)CCl)C(=O)Nc2cccc(C(F)(F)F)c2)CC1` (stereo not shown) [drawing 848], the IC50 was 0.154 µM. Work on `C=CC(=O)NCc1ccccc1CN(C(=O)Nc1cccc(C(F)(F)F)c1)C1CCN(C(C)CCC)CC1` (stereo not shown) [drawing 846] yielded an IC50 of under 0.01 µM. Work on `CCCC(C)N1CCC(N(Cc2ccccc2)C(=O)Nc2ccc(Br)cc2)CC1` (stereo not shown) [A5] yielded an IC50 of 0.0559 µM. `CCCC(C)N1CCC(N(Cc2ccccc2)C(=O)Nc2ccc(O)cc2C)CC1` (stereo not shown) [A115] was tested, and the IC50 was 2.36 µM. `CC(=O)N1CCC(N(Cc2ccco2)C(=O)Nc2cccc(C)c2)CC1` [B72] showed an IC50 of over 67.6 µM. Molecule `O=C(NCc1cccc(C(F)(F)F)c1)C1CCN(Cc2ccccc2)CC1` [B41] has an IC50 of over 63.9 µM. Molecule `O=C(Nc1ccc(C(=O)N2CCCC2)cc1)Nc1cccc(C(F)(F)F)c1` [B112] has an IC50 of over 73.5 µM. With `CCCC(C)N1CCC(N(Cc2ccccc2)C(=O)Nc2cccc(Cl)c2Cl)CC1` (stereo not shown) [A103] the IC50 was 1.74 µM. For `CC(=O)N1CCC(N(Cc2ccco2)C(=O)Nc2cccc(C(F)(F)F)c2)CC1` [B10], the IC50 was 20.2 µM. With `Cc1ccc(NC(=O)NC2CCN(Cc3ccccc3)CC2)cc1Cl` [B59, 1-(1-Benzylpiperidin-4-yl)-3-(3-Chloro-4-Methylphenyl)Urea] the IC50 was over 67.6 µM. For `C=CC(=O)NCCN(C(=O)Nc1cccc(C(F)(F)F)c1)C1CCN(C(C)CCC)CC1` (stereo not shown) [drawing 835], the IC50 was 33.8 µM. In the case of `CC(c1ccc2c(c1)OCO2)N1CCC(N(Cc2ccccc2)C(=O)Nc2cc(F)cc(C(F)(F)F)c2)CC1` (stereo not shown) [A128], the IC50 is reported as 2.39 µM. Work on `COc1ccc(CN(C(=O)Nc2ccccc2C)C2CCN(C(C)=O)CC2)cc1` [B84] yielded an IC50 of over 67.6 µM. For `CCCC(C)N1CCC(N(Cc2cccc(CNC(=O)CCl)c2)C(=O)Nc2cccc(C(F)(F)F)c2)CC1` (stereo not shown) [drawing 847], the IC50 was under 0.01 µM. Molecule `C#CCCCN1CCC(N(Cc2ccccc2NC(=O)C=C)C(=O)Nc2cccc(C(F)(F)F)c2)CC1` [A119] has an IC50 of 0.353 µM. `CCCC(C)N1CCC(N(Cc2ccccc2CNC(=O)CCl)C(=O)Nc2cccc(C(F)(F)F)c2)CC1` (stereo not shown) [A24] gave an IC50 of 0.154 µM. Molecule `O=C(Nc1cc(F)cc(C(F)(F)F)c1)N(Cc1ccccc1)C1CCN(Cc2ncc[nH]2)CC1` [A225] has an IC50 of over 26.1 µM. Molecule `O=C(c1ccccc1F)N1CCC(c2nc3ccccc3s2)CC1` [D13] has an IC50 of 45.3 µM. Molecule `CCn1cnc(NC(=O)NC2CCN(Cc3ccccc3)CC2)n1` [B47] has an IC50 of over 67 µM. Molecule `CCCC(C)N1CCC(N(Cc2ccccc2)C(=O)Nc2ccc(Br)cc2C)CC1` (stereo not shown) [A165] has an IC50 of 9.43 µM. `CCN1CCC(N(Cc2ccco2)C(=O)Nc2ccc(OC)cc2)CC1` [B79] was tested, and the IC50 was over 67.6 µM. `COc1cccc(NC(=O)NC2CCN(Cc3ccccc3)CC2)c1` [B61] showed an IC50 of over 67.6 µM. `C#Cc1ccccc1CN1CCC(N(Cc2ccccc2)C(=O)Nc2cc(F)cc(C(F)(F)F)c2)CC1` [A123] was tested, and the IC50 was 1.13 µM. For `COc1cc(C(=O)N2CCCC(c3nc4ccccc4s3)C2)cc(OC)c1OCC(N)=O` (stereo not shown) [D24], the IC50 was over 67.6 µM. For `CCCC(C)N1CCC(N(Cc2ccccc2)C(=O)Nc2ccc(Oc3ccncc3)cc2)CC1` (stereo not shown) [A69], the IC50 was 0.567 µM. `CCCC(C)N1CCC(N(Cc2ccccc2)C(=O)Nc2ccc(Br)cc2Cl)CC1` (stereo not shown) [A111] was tested, and the IC50 was 2.24 µM. For `CCCC(C)N1CCC(N(Cc2ccccc2)C(=O)Nc2ccc(-c3ccc(OC)cc3)cc2)CC1` (stereo not shown) [A164], the IC50 was 8.9 µM. With `O=C(c1cccc(C(F)(F)F)c1)N(Cc1ccccc1)C1CC2CCC(C1)N2Cc1ccccc1` (stereo not shown) [A234] the IC50 was over 40.6 µM. For `CC1CC(NC(=O)NC2CCCNC2=O)CCN1Cc1ccccc1` (stereo not shown) [B36], the IC50 was over 57.8 µM. Molecule `COc1cc(OC)cc(C(=O)N2CCCC(c3nc4ccccc4s3)C2)c1` (stereo not shown) [D30] has an IC50 of over 67.6 µM.
